From patent US20190015400A1, “Antifungal Compositions” (priority 2017, published 2019) come the findings set out here.

Structures are written as SMILES.

Test [1] deals with 13 Candida spp. strains (strains A-M). Nature of the test: MIC and checkerboard assay, azoles + antihistamines, panel. Type of test: cell-based. The procedure:
(§1) Determination of minimum inhibitory concentration (MIC) values. MIC values were recorded for all antifungals and antihistamines in order to determine the concentration range of compounds to be used in the checkerboard assays.
(§2) The MIC assays were done using the broth microdilution method as described in CLSI document M27-A3 with minor modifications. Yeast cultures were started by picking a colony from a PDA plate stored at 4° C. The colonies were grown in YEPD medium overnight at 35° C. with shaking at 200 rpm. In a 96-well plate compounds were diluted lengthwise along the plate in serial 2-fold dilutions in the RPMI 1640 medium. The yeast cultures were diluted in RPMI 1640 medium to an OD600 within the range of 0.12 and 0.15 (˜1×10^6 cells/mL). The fungal cells were further diluted by taking 25 μL of fungal cells and adding them to 10 mL of RPMI 1640 medium before adding 100 μL to plate (200 μL total volume). The plates were incubated at 35° C. for 48 h. Visual inspection of the wells for no growth was used to determine the MIC. All compounds were tested in duplicate (TABLES 6 and 7).
Checkerboard assays were done as previously described to determine the fractional inhibitory concentration index (FICI). 2-fold dilutions of the azole drug were made in RPMI 1640 medium lengthwise along the plate. […] The FICI was calculated based on the formula below. […]

The test system of test [2] is C. glabrata ATCC 2001 (strain H). Nature of the test: MIC and checkerboard assay, azoles + antihistamines. It is filed as cell-based, Candida glabrata. The procedure:
as §1, §2
Checkerboard assays were done as previously described to determine the fractional inhibitory concentration index (FICI). 2-fold dilutions of the azole drug were made in RPMI 1640 medium lengthwise along the plate. For the antihistamine, 2-fold serial dilutions were made in sterile tubes with RPMI 1640 medium, then aliquoted into the plate. […] The maximal amount was used in the checkerboard assays if complete inhibition was not observed in the MIC assays. Cultures were started by picking a colony from a plate and growing in YEPD medium overnight at 35° C. with shaking at 200 rpm. Cultures were diluted in RPMI 1640 medium to an OD600 between 0.12 and 0.15 (˜1×10^6 cells/mL). Cells were then further diluted by taking 25 μL of cell suspension and adding to 10 mL of RPMI 1640 medium. After the drugs were added to the plate with 100 μL of medium, 100 μL of fungal cells were added. Plates were incubated at 35° C. for 48 h and visual inspection was used to determine wells with no growth. All experiments were carried out in duplicate. The FICI was calculated based on the formula below. The combinational effect of the 2 tested compounds were considered synergistic (SYN) if FICI≤0.5, additive (ADD) if 0.5<FICI≤4, and antagonistic if FICI>4 (TABLES 6-9).

Test [3] concerns C. albicans ATCC 64124 (strain F) biofilm. Nature of the test: Biofilm disruption assay (XTT, SMIC99), azoles + compound 2. Type of test: cell-based, Candida albicans. The method, then: In order to investigate the synergistic effect of azoles and our compounds on inhibiting biofilm formation of C. albicans ATCC 64124 (strain F), we performed a biofilm disruption assay in a checkerboard setup and used XTT [2,3-bis(2-methoxy-4-nitro-5-sulfophenyl)-2H-tetrazolium-5-carboxanilide] reduction to examine the metabolic activity of the biofilm. Briefly, C. albicans ATCC 64124 (strain F) was grown overnight in YEPD broth at 35° C. The culture was then diluted to an OD600 of 0.12 (equivalent to 1×10^6 CFU/mL) and 100 μL was placed into each well of a 96-well plate. The cells were incubated at 37° C. for 24 h for growth. The following day, the spent medium containing planktonic cells was aspirated and each wells were carefully washed three times with sterile phosphate buffer saline (PBS). […] The negative control (medium only) and the positive control (biofilm plus medium) wells were also included in the same 96-well plate. The plates were then incubated at 37° C. statically for additional 24 h and then washed with sterile PBS. 100 μL of a XTT (0.5 mg/mL)/menadione (1 μM) solution was added to each well, covered with aluminum foil, and incubated for 2 h at 37° C. Then, 80 μL of the colored supernatant from each well was transferred to a new 96-well plate, and the absorption was read at OD490. The percent metabolic activity of the formed biofilm at various drug concentration combinations was calculated by dividing the metabolic activity of biofilm formed for that well by that of the biofilm formed in the growth control well (in the absence of any drug). For these experiments, the sessile MIC (SMIC99) was determined, which is defined as the drug concentration required to inhibit the metabolic activity of biofilm by 99% compared to the growth control. The assay for each combination was performed in duplicates.
On the technique in general: Formazan colour is commonly taken as a measure of viable cells.

As for `CC[C@@H]([C@H](C)O)n1ncn(-c2ccc(N3CCN(c4ccc(OC[C@@H]5CO[C@@](Cn6cncn6)(c6ccc(F)cc6F)C5)cc4)CC3)cc2)c1=O` [POS, posaconazole], the MIC (in general, the smallest concentration in the dilution series that meets the test's criterion for growth inhibition) in test [1] (Candida, drug alone against sensitive fungal strains) is 0.25 to 1 µg/mL; in test [2] (Nakaseomyces glabratus, ATCC2001, drug alone), more than 32 µg/mL. The “MIC in synergistic combinations” value in test [1] (synergistic POS + EBA combinations, MIC of the labelled drug) was in the range of 0.008 to 0.5 µg/mL. Besides, the MIC in combination in test [2] (combination POS + EBA, MIC of the labelled drug) amounted to 0.5 µg/mL. Also, in test [2] (combination POS + EBA, decrease for the labelled drug), the “fold decrease in MIC (combination vs alone)” value came to 64 fold. In addition, the “SMIC alone (μg/mL) Azole” value in test [3] (azole alone, sessile cells) was more than 32 µg/mL. For the same compound, the “SMIC combo (μg/mL) Azole” value in test [3] (azole in combination with compound 2) amounted to 0.5 µg/mL.
